We go through 12 molecules from ChEMBL document CHEMBL5126570, “Synthesis, in vitro, in silico and in vivo hypoglycemic and lipid-lowering effects of 4-benzyloxy-5-benzylidene-1,3-thiazolidine-2,4-diones mediated by dual PPAR α/γ modulation” (Bioorg Med Chem Lett, 2022).

The structures appear in SMILES notation. Activity calls are given as the source filed them. The calls are words filed in the database; no cut-off is given here.

Series [1] has as its system Mus musculus. Description: Antidiabetic activity in nicotinamide and streptozotocin induced hyperglycemic mouse model assessed as reduction in triglyceride level at 100 mg/kg, IG administered as single dose and measured on day 0 (reference value: 92 +/- 10 mg/dl). The format is functional.
The target in series [2] is T1, Peroxisome proliferator-activated receptor gamma (Homo sapiens) (UniProt P37231).
T1 sequence (whole entry): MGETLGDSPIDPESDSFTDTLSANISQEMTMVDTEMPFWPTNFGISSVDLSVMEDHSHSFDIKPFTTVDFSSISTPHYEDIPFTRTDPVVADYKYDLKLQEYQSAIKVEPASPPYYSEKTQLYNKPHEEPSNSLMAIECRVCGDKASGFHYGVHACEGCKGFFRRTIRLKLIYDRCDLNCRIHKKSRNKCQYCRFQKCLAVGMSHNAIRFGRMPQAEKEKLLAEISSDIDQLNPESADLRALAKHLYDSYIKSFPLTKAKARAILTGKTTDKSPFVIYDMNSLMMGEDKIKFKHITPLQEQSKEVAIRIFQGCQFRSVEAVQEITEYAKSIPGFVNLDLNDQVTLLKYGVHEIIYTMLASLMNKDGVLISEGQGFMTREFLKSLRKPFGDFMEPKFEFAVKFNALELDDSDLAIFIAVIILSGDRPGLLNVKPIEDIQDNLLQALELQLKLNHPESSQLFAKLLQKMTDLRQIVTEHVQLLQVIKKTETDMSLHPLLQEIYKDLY
Description: Binding affinity to PPARgamma (unknown origin) assessed as change in binding free energy. The following applies: filed as modulator.

Series [3] has as its system 3T3-L1. The series is described as follows: Upregulation of GLUT-4 mRNA expression in adipocyte differentiated mouse 3T3-L1 cells at 10 uM measured after 24 hrs. Type of series: functional, cell-based.
Series [4] has as its system 3T3-L1. Description: Upregulation of PPARgamma mRNA expression in adipocyte differentiated mouse 3T3-L1 cells at 10 uM measured after 24 hrs. Type of series: functional, cell-based.
In series [5] the test system is Mus musculus. Description: Antidiabetic activity in nicotinamide and streptozotocin induced hyperglycemic mouse model assessed as reduction in triglyceride level at 100 mg/kg, IG administered as single dose and measured on day 3 (reference value: 95 +/- 5 mg/dl). Type of series: functional.
The subject of series [6] is Mus musculus. Description: Antidiabetic activity in nicotinamide and streptozotocin induced hyperglycemic mouse model assessed as reduction in blood glucose at 100 mg/kg, IG administered as single dose and measured after 7 hrs. The format is functional. The arrangement: scale not given: the % may be the effect or the level left.
The test system of series [7] is Mus musculus. Description: Antidiabetic activity in nicotinamide and streptozotocin induced hyperglycemic mouse model assessed as reduction in triglyceride level at 100 mg/kg, IG administered as single dose and measured on day 5 (reference value: 93 +/- 10 mg/dl). The format is functional.
Series [8] deals with Mus musculus. Description: Antidiabetic activity in nicotinamide and streptozotocin induced hyperglycemic mouse model assessed as reduction in triglyceride level at 100 mg/kg, IG administered as single dose and measured on day 1 (reference value: 88 +/- 6 mg/dl). The format is functional.
Series [9] concerns 3T3-L1. Description: Upregulation of PPARalpha mRNA expression in adipocyte differentiated mouse 3T3-L1 cells assessed as fold increase in PPARalpha expression at 10 uM measured after 24 hrs. The format is functional.
Series [10] is described as follows: Lipophilicity, logP of compound. As to conditions: octanol/water. The format is physicochemical.
In series [11] the test system is 3T3-L1. The series is described as follows: Cytotoxicity against adipocyte differentiated mouse 3T3-L1 cells at 100 uM by MTT assay. The format is toxicity, cell-based. The following applies: 3t3-l1, 100 µM.
For series [12], the system named is 3T3-L1. Description: Upregulation of PPARgamma mRNA expression in adipocyte differentiated mouse 3T3-L1 cells assessed as fold increase in PPARgamma expression at 10 uM measured after 24 hrs. The format is functional.

For the molecule `O=C1N=C(O)S/C1=C\c1ccc(OCc2ccccc2)cc1`, the Activity in the series on Mus musculus [1] was 97 mg/dL; in the series with Mus musculus [5] it was 69 mg/dL; in the series on Mus musculus [6] it was 38%; in the series with Mus musculus [7], 62 mg/dL; in the series on Mus musculus [8], 70 mg/dL. Further, in [2], the deltaG was -7.43. Further, the result in the series with 3T3-L1 [3] and with 3T3-L1 [4] was Active. Also, in the series with 3T3-L1 [9], the “fold change (FC)” value is listed as 2.

With `N#Cc1ccccc1-c1ccc(COc2ccc(/C=C3\SC(=O)NC3=O)cc2)cc1`, the deltaG in [2] was -7.84. Moreover, the logP in series [10] was found to be 4.94.

As for `COc1cc(/C=C2\SC(=O)NC2=O)ccc1OCc1ccc(-c2ccccc2C#N)cc1`, in the series on 3T3-L1 [11], the Activity entry was “Non-Toxic”. Moreover, the outcome in the series on 3T3-L1 [3] was Active.

Consider `CC(C)OC(=O)C(C)(C)Oc1ccc(C(=O)c2ccc(Cl)cc2)cc1` [FENOFIBRATE], for which the Activity in the series with Mus musculus [1] worked out at 88 mg/dL; in the series on Mus musculus [5] it was 62 mg/dL; with Mus musculus [7] it was 58 mg/dL; in the series with Mus musculus [8] it was 65 mg/dL.

For `COc1cc(/C=C2\SC(=O)NC2=O)ccc1OCc1ccc(C)cc1`, the Activity entry with 3T3-L1 [11] is “Non-Toxic”.

Turning to `O=C1NC(=O)/C(=C/c2ccc(OCc3ccc(Cl)cc3)cc2)S1`, the “fold change (FC)” value is recorded as 5 in the series with 3T3-L1 [12] and 2 with 3T3-L1 [9]. Also, the Activity with Mus musculus [1] is 90 mg/dL; in the series on 3T3-L1 [11] it was “Non-Toxic”; in the series on Mus musculus [5], 77 mg/dL; in the series on Mus musculus [6], -68%; with Mus musculus [7], 75 mg/dL; in the series with Mus musculus [8], 75 mg/dL. Further, the deltaG in [2] is -7.69. In the series with 3T3-L1 [3], the result was Active. Also, the lipophilicity (logP) in series [10] came to 3.53.

Turning to `COc1cc(/C=C2\SC(=O)NC2=O)ccc1OCc1ccc(Cl)cc1`, the Activity entry with 3T3-L1 [11] is “Non-Toxic”. Further, the result in the series on 3T3-L1 [3] and in the series on 3T3-L1 [4] was Active.

With `O=C1NC(=O)/C(=C/c2ccc(OCc3ccccc3)cc2)S1`, in the series on 3T3-L1 [11], the Activity result is on record as “Non-Toxic”. In [10], this molecule showed a logP of 3.

For `COc1cc(/C=C2\SC(=O)NC2=O)ccc1OCc1ccccc1`, in the series on 3T3-L1 [11], the Activity entry is given as “Non-Toxic”. The outcome in the series with 3T3-L1 [3] was Active.

With `Cc1ccc(COc2ccc(/C=C3\SC(O)=NC3=O)cc2)cc1`, the “fold change (FC)” value came out at 5 with 3T3-L1 [12] and 2 with 3T3-L1 [9]. Moreover, the Activity in the series with Mus musculus [1] was 93 mg/dL; in the series on 3T3-L1 [11], “Non-Toxic”; in the series with Mus musculus [5] it was 74 mg/dL; in the series on Mus musculus [6] it was 82%; with Mus musculus [7], 70 mg/dL; in the series with Mus musculus [8], 88 mg/dL. The deltaG in [2] was -7.72. Also, the result with 3T3-L1 [3] was Active. Further, the logP in series [10] turned out to be 3.33.

Turning to `N#Cc1ccccc1COc1ccc(/C=C2\SC(=O)NC2=O)cc1`, the Activity result in the series with 3T3-L1 [11] is “Non-Toxic”. The result in the series with 3T3-L1 [4] was Active.

As for `COc1cc(/C=C2\SC(=O)NC2=O)ccc1OCc1ccccc1C#N`, the Activity entry in the series with 3T3-L1 [11] is “Non-Toxic”.

The term logP denotes the decadic logarithm of the partition coefficient of the neutral form, usually between octanol and water.
